US12467038B2, “Methods of culturing human pluripotent cells” (Hadasit Medical Research Services and Development Ltd., priority 2019, dated 2025)

What was measured:
Type in all cases: cell-based, human
[1] = tested on: LN-hPSCs; experiment: Signaling pathways analysis, phase-contrast colony morphology
Experimental: (§1) Signaling pathways analysis—hPSCs were cultured on LN111 for 2 days in complete medium, and then for additional 3-5 days in a medium+/−FGF2 in the presence of the following small molecules: PD032590 1 μM (Peprotech), LY294002 10 μM, SB431542 10 μM, CHIR99021 3 μM (all from Cayman Chemical, Michigan, USA), XAV939 2.5 μM (Peprotech), BMP4 50 ng/ml (Biogems-Peprotech).
as §1, with “analysis-hPSCs” for “analysis—hPSCs”

[2] = tested on: LN-hPSCs; experiment: Immunofluorescence staining after WNT activation; conditions: upon WNT activation with CHIR
Experimental: as §1
Immunofluorescence staining: 4-6 day hESC colonies were fixed with 4% paraformaldehyde for 20 min at RT, permeabilized and blocked with 0.2% Triton X100 (Sigma-Aldrich), 5% normal goat/donkey serum (Biological industries, Beit Haemek, Israel) in PBS for 45 min, and incubated 1 hour at RT with the following primary antibodies: mouse IgG2b anti-human Oct4 (1:50; Cat. No. SC5279, Santa Cruz Biotechnology Inc., USA), goat polyclonal IgG anti-human FGF5 (1:250; Cat. No. AF-237-NA, R&D Systems, Minneapolis, Minn., USA), Rabbit polyclonal IgG anti-GFP (1:250; Cat. No. A11122, Invitrogen), goat polyclonal IgG anti-Brachyury (1:150; Cat. No. AF-2085, R&D Systems), and goat polyclonal IgG anti-human OTX2 (1:50; Cat. No. AF-1979, R&D Systems). […]

[3] = tested on: LN-hPSCs; experiment: Signaling pathways analysis, Real-Time PCR of marker expression
Experimental: as §1
(§2) Real Time PCR analysis—A relative gene expression quantitation assay was performed by amplification of 50 ng cDNA by Real Time PCR, using ABI Prism 7900HT Sequence Detection System (Applied Biosystems (ABI), Foster City, Calif.), specific TaqMan® Gene Expression Assays and TaqMan Fast Universal PCR master Mix. Human β-glucuronidase (gusB) or human β-actin (actB) were used as endogenous gene references. Data was analyzed using the RQ Manager Software v1.2 (ABI). For global expression analysis of pluripotency and differentiation associated genes, 200 ng cDNA were subjected to Real Time PCR amplification using Applied Biosystems® TaqMan® Human Stem Cell Pluripotency Array (Cat. No. 4385344), and Taqman Gene Expression Master Mix. Array data was analyzed using the DataAssist Software v2.0 (ABI).
as §1, with “analysis-hPSCs” for “analysis—hPSCs”
as §2, with “of 25-50” for “of 50”, “by Real-Time” for “by Real Time”, “and TaqMan®” for “and TaqMan”, “PCR Master Mix (All from Invitrogen).” for “PCR master Mix.”, “to Real-time” for “to Real Time”

[4] = tested on: LN-hPSCs; experiment: FACS analysis of pluripotency cell-surface markers; conditions: basic medium supplemented with FGF2, XAV939 2.5 μM
Experimental: Signaling pathways analysis—hPSCs were cultured on LN111 for 2 days in complete medium, and then for additional 3-5 days in a medium+/−FGF2 in the presence of the following small molecules: PD032590 1 μM (Peprotech), LY294002 10 μM, SB431542 10 μM, CHIR99021 3 μM (all from Cayman Chemical, Michigan, USA), XAV939 2.5 μM (Peprotech), BMP4 50 ng/ml (Biogems-Peprotech). FACS analysis—FACS analyses were performed using the following primary antibodies: mouse IgM anti-TRA-1-60 (1:100; mab4360, R&D), and mouse IgM anti-TRA-1-81 (1:100; mab4381, R&D), and Rat IgM anti-SSEA-3. Staining with respective isotype control antibodies (all from eBiosciences) served as controls. Detection of primary antibodies was performed using the following secondary antibodies: FITC-conjugated Polyclonal Goat Anti-Mouse Immunoglobulins (1:100; Dako, Glostrup, Denmark), APC-conjugated Goat anti-Mouse IgM/G (1:200; Cat. No. 1020-11, SouthernBiotech, Birmingham, Ala., USA), and APC-conjugated anti-Rat (1:200; eBioscience). FACS analysis was performed on a FACScalibur system (Becton-Dickinson, San Jose, Calif.) using the Cellquest software. A detailed FACS procedure is described elsewhere. FACS analysis—FACS analyses for pluripotency marker expression were performed using mouse anti-TRA-1-60 (1:100; mab4360, R&D), and mouse anti-TRA-1-81 (1:100; mab4381, R&D). […]

[5] = tested on: hPSCs; experiment: Undifferentiated propagation and PGC differentiation of hPSCs on laminin; conditions: HES-1 hPSCs
Experimental: LN-hPSCs were cultured on mouse LN111, 3-D Culture Matrix Laminin I (CULTREX, TREVIGEN, #3446-005-01, Gaithersburg, Md., USA). 0.175 ml diluted LN111 (1:14 to a coating concentration of 0.43 mg/ml) was used to coat a well of a 6-well culture dish, leaving a margin of 2-3 mm at the well edge (a final concentration of ˜8 microgram/cm^2). The coated dishes were incubated from 4 hours to 4 days, at 37° C., and washed with PBS before use. LN-hPSCs were cultured in a medium composed of DMEM/F12, B27 supplement (1:50), N2 supplement (1:100), 2 mM L-glutamine, 50 units/ml penicillin, 50 μg/ml streptomycin (all from Invitrogen), and supplemented daily with 20 ng/ml FGF2 (Peprotech). Cells were passaged every 5-6 days using 1.5 mg/ml collagenase type IV (Invitrogen). 5 μM ROCK inhibitor (Y-27632, Peprotech) was added for the first day after passaging.
hPSCs were cultured on human recombinant LN521 (BIOLAMINA, Sundbyberg, Sweden). Coating of culture dishes with hrLN521 was performed according to the manufacturer's instructions (Coating concentration ˜0.45 microgram/cm^2). Cells were cultured in the same medium used for culturing LN-hPSCs, and passaged with collagenase type IV.
PGC differentiation of hPSCs in suspension—LN-hPSCs and hPSCs cultured on hrLN-521 were dissociated into a single-cell suspension using TrypLE Select Enzyme (Invitrogen). Primed hPSCs were first dissociated from the MEF feeders by treatment with collagenase type IV, followed by dissociation into single cells by TrypLE Select Enzyme. 2000-3000 cells were seeded into a microwell of AggreWell™800 24-well plate (STEMCELL Technologies), and cultured as EBs in suspension, in PGCLC differentiation medium as described elsewhere (Irie et al., 2015).

[6] = medium depleted for FGF2, in the presence of the inhibitor, five days

For `Cc1c[nH]c(-c2cnc(NCCNc3ccc(C#N)cn3)nc2-c2ccc(Cl)cc2Cl)n1` [CHIR, CHIR99021], the LN-hPSC colony morphology ([1]; 3 days in the presence of CHIR) was “appeared differentiated”, the “T-positive cells (immunostaining)” value [2] was “expressed in the majority of the cells” and the “expression of PS and mesendodermal markers T, SOX17, and GSC” value ([3]; 3 days in the presence of CHIR) was “up-regulation”. For the same compound, the “expression of core pluripotency TFs Oct4, Nanog and SOX2 as well as OTX2” value ([3]; 3 days in the presence of CHIR) was “down-regulation” and the “expression of early ecdodermal marker PAX6” value ([3]; 3 days in the presence of CHIR) was “down-regulated”.
For `O=C(NOC[C@H](O)CO)c1ccc(F)c(F)c1Nc1ccc(I)cc1F` [PD032590], the “differentiation as evidenced by changes in cell morphology” value [1, 6] was “Differentiation was observed” and the “Oct4 and Nanog expression levels” value [3, 6] was “significant down-regulation”.
For `NC(=O)c1ccc(-c2nc(-c3ccc4c(c3)OCO4)c(-c3ccccn3)[nH]2)cc1` [SB431542], the colony morphology ([1]; FGF2 depleted from the medium) was “the colonies including the margins differentiated”, the colony morphology ([1]; medium containing FGF2, 5 d) was “appeared differentiated” and the “Oct4 and Nanog expression levels” value ([3]; FGF2 depleted from the medium) was “strongly reduced”. For the same compound, the Nanog expression ([3]; medium containing FGF2, 5 d) was “drastically reduced” and the Oct4 levels ([3]; medium containing FGF2, 5 d) was “moderately down-regulated”.
With `Oc1nc(-c2ccc(C(F)(F)F)cc2)nc2c1CSCC2` [XAV939] the “percentages of cells expressing TRA-1-60” value [4] was “did not affect” and the LN-hPSC colonies morphology ([1]; basic medium supplemented with FGF2, XAV939 2.5 μM) was “did not affect”.
For “BMP4: BMP4 50 ng/ml (Biogems-Peprotech), conserved role in germ cell specification”, the “expression of early PGC TFs PRDM1 (BLIMP1) and TFAP2C” value ([3]; BMP4 treatment) was “induced the expression” and the “expression of formative pluripotency TFs OTX2 and FOXD3” value ([3]; BMP4 treatment) was “down-regulation”.
For “hrLN521: human recombinant LN521 (BIOLAMINA), coating of culture dishes”, the “competence to initiate germ cell specification” value [5] was “competent to initiate germ cell specification” and the “undifferentiated propagation of hPSCs expressing markers of pluripotency and early post-implantation epiblast” value [5] was “supports the undifferentiated propagation”.
